Laboratory results taken from patent US7741435B2, “Substance P-saporin (SP-SAP) conjugates and methods of use thereof” (Advanced Targeting Systems, Inc., priority 1997, dated 2010).

Tests used:
[1] = system: NK-1R-expressing spinal cord neurons; assay: Internalization and cytotoxicity in primary cultures of spinal cord neurons; assay type: cell-based, rat; settings: for morphological or cytotoxic changes in NK-1R-expressing and non-NK-1R, MAP-2 neurons: treatment alone
Experimental: SP-SAP internalization and cytotoxicity was examined in primary cultures of neonatal rat spinal cord neurons where approximately 15% of the neurons express NK-1R. All procedures were approved by Animal Care Committee at the VA Medical Center and the University of Minnesota. Neurons were cultured from the spinal cords of 18-day embryonic Holtzman rats (Harlan Sprague Dawley, Madison, Wis.). The whole spinal cord was dissected out of the rat and placed in 4° C. Puck's saline supplemented with 40 mM. glucose, 50 mM sucrose, and 10 mM Hepes (DISG media, pH 7.4). The spinal cords were then dissociated by trituration (15-20 times) through a small bore serological pipet. The resulting cell suspension was centrifuged at 4° C. for 5 min at 1500 rpm in a Sorvall RC-3B centrifuge (DuPont, Newtown, Conn.). The supernatant was removed and the pellet resuspended in Dulbecco's modified Eagle's medium (DMEM; Sigma Chemical Co., St. Louis, Mo.) plus 5% equine serum and 5% calf serum (v/v) (Hyclone, Logan, Utah). The cell suspension was plated on poly-L-ornithine coated 2-well chamber slides at a density of 100,000 cells/ml, and incubated at 37° C. with 9% CO2. After 4 days the mitotic inhibitors, 5-fluoro-2′-deoxyuridine and uridine were added. At 7 days the media was replaced with DMEM plus 10% equine serum (v/v). The cells were incubated unil 14 days post-culture with media changes every 4th day.
At day 14 post-culture, either saline or SP, SP-SAP conjugate or saporin (SAP) were added to a final concentration of 10^−7 M. The cells were incubated for 12 hr with the SP-SAP or SAP compounds at which time the compounds were removed from the culture and fresh media was added. The cultures were then allowed to continue until the desired timepoints (2 hr. 1, 4, 7, and 10 days) at which time the experiment was terminated and the cells were processed for immunohistochemistry by fixing for 20 min at 22° C. with 4% formalin in a phosphate buffered saline solution as previously described (2,39-42). […] Two hours following treatment with 10^−7 M SP-SAP, but not 10^−7 M SAP, NK-1R internalization was visualized using an antibody that recognized NK-1R (FIG. 8A) and intracellular accumulation of SAP was visualized using an antibody that recognized SAP (FIG. 8B)
In contrast, one day following treatment with SP alone the majority of NK-1R had recycled to the plasma membrane. Thus, within 24 hours after SP-SAP internalization these neurons could no longer efficiently recycle NK-1R back to the plasma membrane.

[2] = General observation after intrathecal infusion (body weight, food intake, behavior); assay type: in vivo, rat; settings: for 28 days after intrathecal injection
[3] = system: NK-1R-expressing lamina I spinal cord neurons; assay: Cytotoxicity of intrathecal infusion in the spinal cord (immunohistochemistry, confocal microscopy); settings: for change in NK-1R immunoreactivity in lamina I, spinal segments L2-L5: intrathecal injection alone, any time point examined; for change in cell number, morphology or fluorescence level of any of the cell markers examined: treatment alone, 28 days
Experimental: Animals were anesthetized with an intramuscular injection of Ketamine (100 mg/kg) & Acepromazine (1 mg/kg) and placed in a stereotaxic frame. An 8.5-cm length of PE-10 tubing (inner diameter: 0.28 mm, outer diameter: 0.61 mm), serving as an inflow cannula, was inserted into the subarachnoid space via an incision in the atlanto-occipital membrane. The cannula terminated in the caudal region of the lumbar enlargement (approximately L4). […] 5 min after spinal superfusion, the cannula was carefully withdrawn and the wound closed with 3-0 silk sutures.
Immunohistochemistry and fluorescent confocal microscopy was performed as previously described (46) using an MRC-1024 Confocal Imaging System (Bio-Rad, Boston, Mass.) and an Olympus BH-2 microscope equipped for epifluorescence (Lake Success, N.Y.). For cell counts the spinal cords were cut in the sagittal plane whereas for immunofluorescence measurements the spinal cords were cut in either the sagittal or coronal plane. Both of the microscopes were set up as previously described (46,47). SPR was detected by a polyclonal rabbit anti-SPR antibody (1:5000; a kind gift from S. Vigna) raised against a 15 amino acid peptide sequence (SPR393-407) at the COOH-terminus of the rat SPR. […] Calbindin was detected by a monoclonal mouse anti-calbindin antibody (Sigma, 1:300). Microtubule-associated protein (MAP-2) was detected by a monoclonal mouse anti MAP-2 antibody (Sigma, 1:750). Choline acetyl transferase (CHAT) was detected by a monoclonal mouse anti-ChAT antibody (Chemicon, 1:500). Glial Fibrillary Acidic Protein was detected by a polyclonal rabbit anti-GFAP antibody (DAKO, 1:450). OX-42 was detected using a monoclonal mouse antibody (Chemicon, 1:2,000). Saporin was detected by a polyclonal goat anti-Saporin antibody (Advanced Targeting Systems, 1:350). […] All primary (overnight, 22° C.) and secondary (3 hours, 22° C.) antibodies were applied in cocktails with 1% goat serum and 0.3% Triton X-100 in PBS solution. Finally, the tissue sections were washed for 20 min in PBS (pH 7.4, 22_C), mounted onto gelatin-coated slides, and coverslipped using PBS-glycerine containing 1.0% p-phenylenediamine to reduce photobleaching.
To determine the number of immunofluorescent cell bodies (Table 1) the slides were viewed through a 1.0 cm^2 eyepiece grid, which was divided into one hundred 1 mm×1 mm units, and the total number of immunofluorescent cell bodies/unit area were counted. To calculate SPR immunofluorescence intensity, images of the 60 μm thick tissue sections were obtained with the BioRad MRC1024 laser scanning confocal fluorescent imaging system and analyzed using NIH Image 1.7.
Cell numbers and immunofluorescence levels were determined using confocal microscopy. […] All data points represent an n=6 and are expressed as +/−s.e.m. and significant differences calculated by a one-way ANOVA and Bonferroni comparisons (* denotes P<0.01).

[4] = system: capsaicin-induced hyperalgesia in rats; assay: Capsaicin-induced nocifensive behavior and mechanical and heat hyperalgesia after intrathecal pretreatment; assay type: in vivo, rat; settings: compared to normal untreated animals, any time point
From the text: Measures of nocifensive behavior and hyperalgesia produced by intraplantar injection of capsaicin were obtained as described previously (48). Hyperalgesia is defined as an increase in withdrawal responses. The capsaicin model of hyperalgesia used in these experiments was chosen as it has been well characterized, it clearly produces hyperalgesia in humans and it is the only model of hyperalgesia that can be used in parallel animal and human studies. Capsaicin (Sigma Chemical Co., St. Louis, Mo.) was dissolved in a vehicle of 7.5% polyxyethylene sorbitan monooleate (Tween-80) and saline, and given into the plantar surface of one hindpaw. Each animal received one injection of […]. The duration of nocifensive behavior, defined as lifting and guarding the injected paw, was measured for the first five minutes after injection.
Withdrawal responses to heat were determined using a procedure previously described (49). […] The start of each trial activated a timer and withdrawal latencies to the nearest 0.1 sec were measured automatically by a photocell which terminated each trial and stopped the timer upon withdrawal of the paw. […]
To measure withdrawal responses to mechanical stimuli, rats were placed under a clear plastic cage on an elevated plastic mesh floor (1 cm^2 perforations). […] The frequency was determined for each hindpaw. […]

[5] = target: T1, NK-1R (Rattus norvegicus, UniProt P14600); assay: Inhibition of radiolabeled SP binding to spinal cord membrane homogenates; settings: iodinated SP 150 pM, 100 nM nonlabeled competitor, FIG. 4
T1 construct: from tissue; host or cells: membrane homogenate (spinal cord according to the assay title)
Experimental: Homogenate is prepared and binding performed as previously described (26). […] Membrane-bound label is separated from free label by centrifugation and measured with a gamma counter. Control is no addition of competitor.

[6] = L4 segment, 28 days post-treatment, intrathecal, n=6, ± s.e.m.

T1 sequence (P14600 whole entry): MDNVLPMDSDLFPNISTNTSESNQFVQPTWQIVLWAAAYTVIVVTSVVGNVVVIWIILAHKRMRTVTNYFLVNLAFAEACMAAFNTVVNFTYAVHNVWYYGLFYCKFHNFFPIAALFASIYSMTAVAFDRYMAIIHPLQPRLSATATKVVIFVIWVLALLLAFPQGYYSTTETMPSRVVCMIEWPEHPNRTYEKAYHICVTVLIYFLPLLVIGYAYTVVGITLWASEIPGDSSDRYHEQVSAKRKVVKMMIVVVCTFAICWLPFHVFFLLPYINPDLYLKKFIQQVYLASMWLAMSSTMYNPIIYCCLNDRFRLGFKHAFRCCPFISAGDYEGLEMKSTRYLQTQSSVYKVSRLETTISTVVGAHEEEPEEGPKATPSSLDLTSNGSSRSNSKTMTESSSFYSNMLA

| Molecule | changes in body weight, food intake, alertness, locomotion or grooming behavior [2] | change in NK-1R immunoreactivity in lamina I, spinal segments L2-L5 [3] | change in cell number, morphology or fluorescence level of any of the cell markers examined [3] | morphological or cytotoxic changes in NK-1R-expressing and non-NK-1R, MAP-2 neurons ([1]; 10^−7 M) | change in mechanical or thermal hyperalgesia, or nocifensive behavior produced by capsaicin [4] | inhibition of iodinated SP binding [5] | also measured |
| --- | --- | --- | --- | --- | --- | --- | --- |
| COc1ccccc1CC(=N)N1C[C@@H]2C(=O)CCC(c3ccccc3)(c3ccccc3)[C@@H]2C1 [RP67580] |  |  |  |  |  |  | block of SP- and SP-SAP-induced NK-1R internalization ([1]; 5×10^−6 M antagonist): blocked |
| RPKPQQFFGLM [SP] | no detectable changes | no change | did not produce a significant change | no significant morphological or cytotoxic changes | no significant change |  | NK-1R internalization ([1]; 10^−7 M, cultured spinal cord neurons): induced a rapid and similar degree of NK-1R internalization |
| SAP: potent ribosome-inactivating protein isolated from the seeds of the plant Saponaria officinalis | no detectable changes | no change | did not produce a significant change | no significant morphological or cytotoxic changes | no significant change | little or no inhibition | Percent immunoreactive positive cells (saline = 100), SP (DRG) ([3]; L4 dorsal root ganglia, 28 days post-treatment, intrathecal, n=6, ± s.e.m.): 91 ± 11%; Percent immunofluorescence level, GFAP (lamina I) [3, 6]: 90 ± 13%; Percent immunofluorescence level, MAP-2 (lamina I) [3, 6]: 100 ± 14%; Percent immunofluorescence level, SP (laminae I and II) [3, 6]: 96 ± 3%; Percent immunofluorescence level, SPR (laminae I and II) [3, 6]: 95 ± 3%; Percent immunoreactive positive cells (saline = 100), Calbindin (laminae I and II) [3, 6]: 96 ± 7%; Percent immunoreactive positive cells (saline = 100), ChAT (motor neurons) [3, 6]: 116 ± 24%; Percent immunoreactive positive cells (saline = 100), SPR (lamina III and IV) [3, 6]: 79 ± 13%; Percent immunoreactive positive cells (saline = 100), SPR (laminae I and II) [3, 6]: 80 ± 16%; Percent immunofluorescence level, SPR (preganglionic sympathetic) ([3]; spinal segment T10, 28 days post-treatment, intrathecal, n=6, ± s.e.m.): 100 ± 9% |
| neurokinin A |  |  |  |  |  | significant interaction with the NK-1R |  |
| neurokinin B |  |  |  |  |  | little or no inhibition |  |
